# Measurements reported in paper PMC5054527, “Mechanism of high affinity inhibition of the human urate transporter URAT1” (Scientific Reports, 2016).
# Where a chain is given by its changes, count along the chain named. Like-named read-outs stand apart in the source and are kept apart here.
# Tests used:
# Assay in all cases: URAT1 uric acid transport activity assay
# Format in all cases: cell-based
# rat URAT1 (rURAT1 WT) = target: T1, rat URAT1 (rURAT1 WT) (Rattus norvegicus, UniProt Q3ZAV1)
# T1 sequence (Q3ZAV1 1-553): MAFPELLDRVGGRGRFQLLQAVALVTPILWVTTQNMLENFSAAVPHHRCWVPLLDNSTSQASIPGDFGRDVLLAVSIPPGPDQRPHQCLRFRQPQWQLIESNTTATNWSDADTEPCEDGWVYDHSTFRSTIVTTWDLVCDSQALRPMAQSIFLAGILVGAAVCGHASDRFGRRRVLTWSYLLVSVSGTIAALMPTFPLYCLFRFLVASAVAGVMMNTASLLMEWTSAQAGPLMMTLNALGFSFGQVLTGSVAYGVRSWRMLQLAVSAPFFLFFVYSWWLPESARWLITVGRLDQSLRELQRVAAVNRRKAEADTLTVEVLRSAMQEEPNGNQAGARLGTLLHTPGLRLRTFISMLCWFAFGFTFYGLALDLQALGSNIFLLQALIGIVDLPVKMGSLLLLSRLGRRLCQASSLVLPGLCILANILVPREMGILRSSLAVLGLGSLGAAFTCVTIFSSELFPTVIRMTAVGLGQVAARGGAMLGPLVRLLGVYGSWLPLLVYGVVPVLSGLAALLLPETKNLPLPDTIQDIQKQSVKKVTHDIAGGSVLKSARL
# [1] = target: T2, r-M481I rURAT1 point mutant (Rattus norvegicus, UniProt Q3ZAV1, M481I)
# T2 sequence (Q3ZAV1 1-553 M481I): T1 sequence (Q3ZAV1 1-553) with M481I
# Summary of the method: (§1)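 Cells expressing site-directed rat URAT1 mutants were exposed to inhibitor dilutions for 5 minutes before radiolabelled uric acid (100 μM) was added for 10 minutes. Potency was derived by nonlinear regression of log inhibitor versus response.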
# [2] = target: T3, r-V31L rURAT1 point mutant (Rattus norvegicus, UniProt Q3ZAV1, V31L)
# T3 construct: expressed in transfected cells; host or cells: HEK-293T
# T3 sequence (Q3ZAV1 1-553 V31L): T1 sequence (Q3ZAV1 1-553) with V31L
# Summary of the method: as §1
# [3] = rURAT1 WT, MES pH 5.5, 100 μM 14C-uric acid, read-out: IC50 (uric acid transport)
smiles,measurement,setting,value
O=c1[nH]c(=O)c2[nH]c(=O)[nH]c2[nH]1 [uric acid],IC50,rat URAT1 (rURAT1 WT); [3],2630 µM
CCc1oc2ccccc2c1C(=O)c1cc(Br)c(O)c(Br)c1 [benzbromarone],IC50,[1],15 ± 1.1 µM
same,IC50,[2],17 ± 3.4 µM
same,IC50,rat URAT1 (rURAT1 WT),26 µM
"O=C(O)CSc1nnc(Br)n1-c1ccc(C2CC2)c2ccccc12 [lesinurad, 2-((5-bromo-4-(4-cyclopropylnaphthalen-1-yl)-4H-1,2,4-triazol-3-yl)thio)acetic acid]",IC50,"[1]; r-M481I, MES pH 5.5, 100 μM 14C-uric acid, read-out: IC50 (uric acid transport)",71 ± 3 µM
same,IC50,"[2]; r-V31L, MES pH 5.5, 100 μM 14C-uric acid, read-out: IC50 (uric acid transport)",85 ± 4.5 µM
same,IC50,rat URAT1 (rURAT1 WT); [3],81 µM
O=C1C(CC[S+]([O-])c2ccccc2)C(=O)N(c2ccccc2)N1c1ccccc1 (centres unmarked) [sulfinpyrazone],fold increased affinity of r-M481I compared to rURAT1,[1]; from IC50 values,1.7 fold
same,IC50,"[1]; r-M481I, HEPES pH 7.3, 100 μM 14C-uric acid, read-out: IC50 (uric acid transport)",395 ± 68 µM
same,IC50,"[2]; r-V31L, HEPES pH 7.3, 100 μM 14C-uric acid, read-out: IC50 (uric acid transport)",266 ± 70 µM
same,IC50,"rat URAT1 (rURAT1 WT); rURAT1 WT, HEPES pH 7.3, 100 μM 14C-uric acid, read-out: IC50 (uric acid transport)",680 µM
